biological target: T1, human glucocorticoid receptor (GR) complex (Homo sapiens, UniProt P04150); test: Glucocorticoid Receptor Competitive Binding Assay (fluorescence polarization); conditions: competition with TAMRA-labeled dexamethasone; potent activity
T1 construct: made in house; host or cells: insect expression system (baculovirus lysate)
T1 sequence (P04150 1-777): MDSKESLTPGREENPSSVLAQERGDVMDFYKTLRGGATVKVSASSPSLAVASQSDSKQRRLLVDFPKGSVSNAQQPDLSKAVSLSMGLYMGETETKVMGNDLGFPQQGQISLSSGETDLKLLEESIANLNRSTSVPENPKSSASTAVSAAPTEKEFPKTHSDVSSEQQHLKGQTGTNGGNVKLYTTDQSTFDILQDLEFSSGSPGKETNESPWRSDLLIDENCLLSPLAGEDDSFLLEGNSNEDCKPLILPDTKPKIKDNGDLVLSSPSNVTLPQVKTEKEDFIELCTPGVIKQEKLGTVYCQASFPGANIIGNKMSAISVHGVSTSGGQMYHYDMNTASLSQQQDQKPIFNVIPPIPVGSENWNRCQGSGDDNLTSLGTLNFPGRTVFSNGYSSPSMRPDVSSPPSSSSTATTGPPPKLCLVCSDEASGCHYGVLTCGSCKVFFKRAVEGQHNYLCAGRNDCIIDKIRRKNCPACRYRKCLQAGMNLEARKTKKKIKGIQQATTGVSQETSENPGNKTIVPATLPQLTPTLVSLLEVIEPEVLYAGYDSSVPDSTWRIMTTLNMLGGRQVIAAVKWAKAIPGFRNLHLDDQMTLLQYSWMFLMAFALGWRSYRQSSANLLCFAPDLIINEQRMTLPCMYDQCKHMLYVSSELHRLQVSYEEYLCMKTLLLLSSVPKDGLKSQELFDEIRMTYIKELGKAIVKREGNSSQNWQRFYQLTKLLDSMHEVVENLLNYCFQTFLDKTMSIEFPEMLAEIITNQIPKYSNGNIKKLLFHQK
Experimental: Compounds of the invention were evaluated for binding to the steroid receptor by a fluorescence polarization competitive binding assay. Detailed descriptions for preparation of recombinant glucocorticoid receptor (GR) complex used in the assay is described in U.S. Patent Application Publication No. US 2003/0017503, filed May 20, 2002, and incorporated herein by reference in its entirety. Preparation of the tetramethylrhodamine (TAMRA)-labeled dexamethasone probe was accomplished using a standard literature procedure (M. Pons et al., J. Steroid Biochem., 1985, 22, pp. 267-273).
This assay uses fluorescence polarization (FP) to quantitate the ability of test compounds to compete with tetramethylrhodamine (TAMRA)-labeled dexamethasone for binding to a human glucocorticoid receptor (GR) complex prepared from an insect expression system. The assay buffer was: 10 mM TES, 50 mM KCl, 20 mM Na2MoO4.2H2O, 1.5 mM EDTA, 0.04% w/v CHAPS, 10% v/v glycerol, 1 mM dithiothreitol, pH 7.4. Test compounds were dissolved to 1 mM in neat DMSO and then further diluted to 10× assay concentration in assay buffer supplemented with 10% v/v DMSO. Test compounds were serially diluted at 10× assay concentrations in 10% DMSO-containing buffer in 96-well polypropylene plates. Binding reaction mixtures were prepared in 96-well black Dynex microtiter plates by sequential addition of the following assay components to each well: 15 μL of 10× test compound solution, 85 μL of GR-containing baculovirus lysate diluted 1:170 in assay buffer, and 50 μL of 15 nM TAMRA-labeled dexamethasone. Positive controls were reaction mixtures containing no test compound; negative controls (blanks) were reaction mixtures containing 0.7 μM to 2 μM dexamethasone. The binding reactions were incubated for 1 hour at room temperature and then read for fluorescence polarization in the LJL Analyst set to 550 nm excitation and 580 nm emission, with the Rhodamine 561 dichroic mirror installed. IC50 values were determined by iterative non-linear curve fitting of the FP signal data to a 4-parameter logistic equation.

IC50, ≤ 0.1 µM:
CC[C@@H](Cn1ccc2cc(C(=O)OC)ccc21)NS(=O)(=O)c1c(C)cc(C)cc1C [1-[(S)-2-(2,4,6-Trimethylbenzenesulfonylamino)butyl]-1H-indole-5-carboxylic acid methyl ester]
CC[C@@H](Cn1cc(C(N)=O)c2cc(F)ccc21)NS(=O)(=O)c1c(Cl)cc(Br)cc1Cl [1-[(S)-2-(4-Bromo-2,6-dichlorobenzenesulfonylamino)butyl]-5-fluoro-1H-indole-3-carboxylic acid amide]
CCC(Cn1cc(C)c2ccccc21)NS(=O)(=O)c1c(Cl)cc(Cl)cc1Cl (stereo not drawn) [2,4,6-Trichloro-N-[1-(3-methylindol-1-ylmethyl)propyl]benzenesulfonamide]
Cc1ccc2c(c1)CCCN2CC(NS(=O)(=O)c1c(Cl)cc(Cl)cc1Cl)C(C)C (stereo not drawn) [2,4,6-Trichloro-N-[2-methyl-1-(6-methyl-3,4-dihydro-2H-quinolin-1-ylmethyl)propyl]benzenesulfonamide]
CCC(Cn1cc(C)c2ccccc21)NS(=O)(=O)c1c(C)cc(C)cc1C (stereo not drawn) [2,4,6-Trimethyl-N-[1-(3-methylindol-1-ylmethyl)propyl]benzenesulfonamide]
CC[C@@H](Cc1cccc2c1ccn2C)NS(=O)(=O)c1c(C)cc(C)cc1C [2,4,6-Trimethyl-N—[(S)-1-(1-methyl-1H-indol-4-ylmethyl)propyl]benzenesulfonamide]
CC[C@@H](Cc1ccc2ccn(C)c2c1)NS(=O)(=O)c1c(C)cc(C)cc1C [2,4,6-Trimethyl-N—[(S)-1-(1-methyl-1H-indol-6-ylmethyl)propyl]benzenesulfonamide]
CC[C@@H](Cc1cccc2ccn(C)c12)NS(=O)(=O)c1c(C)cc(C)cc1C [2,4,6-Trimethyl-N—[(S)-1-(1-methyl-1H-indol-7-ylmethyl)propyl]benzenesulfonamide]
CC[C@@H](Cn1cc(C)c2ccccc21)NS(=O)(=O)c1c(C)cc(C)cc1C [2,4,6-Trimethyl-N—[(S)-1-(3-methylindol-1-ylmethyl)propyl]benzenesulfonamide]
CC[C@@H](Cn1cc(-c2ccc(C)cc2)c2ccccc21)NS(=O)(=O)c1c(C)cc(C)cc1C [2,4,6-Trimethyl-N—[(S)-1-(3-p-tolylindol-1-ylmethyl)propyl]benzenesulfonamide]
CC[C@@H](Cn1cc(-c2cccnc2)c2ccccc21)NS(=O)(=O)c1c(C)cc(C)cc1C [2,4,6-Trimethyl-N—[(S)-1-(3-pyridin-3-ylindol-1-ylmethyl)propyl]benzenesulfonamide]
Cc1cc(C)c(S(=O)(=O)NC(Cn2cc(C)c3ccccc32)C(C)C)c([N+](=O)[O-])c1 (stereo not drawn) [2,4-Dimethyl-N-[2-methyl-1-(3-methylindol-1-ylmethyl)propyl]-6-nitrobenzenesulfonamide]
CC[C@@H](Cn1cc(C)c2ccccc21)NS(=O)(=O)c1c(C)cc(C)cc1[N+](=O)[O-] [2,4-Dimethyl-N—[(S)-1-(3-methylindol-1-ylmethyl)propyl]-6-nitrobenzenesulfonamide]
Cc1cc(C)c(S(=O)(=O)N[C@@H](C)Cn2cc(C)c3ccccc32)c([N+](=O)[O-])c1 [2,4-Dimethyl-N—[(S)-1-methyl-2-(3-methylindol-1-yl)-ethyl]-6-nitrobenzenesulfonamide]
CC(C)C(Cn1ccc2ccccc21)NS(=O)(=O)c1c(N)cc(Cl)cc1Cl (stereo not drawn) [2-Amino-4,6-dichloro-N-(1-indol-1-ylmethyl-2-methylpropyl)benzenesulfonamide]
CCC(Cn1cc(C)c2ccccc21)NS(=O)(=O)c1c(N)cc(Cl)cc1Cl (stereo not drawn) [2-Amino-4,6-dichloro-N-[1-(3-methylindol-1-ylmethyl)propyl]benzenesulfonamide]
Cc1cn(CC(NS(=O)(=O)c2c(N)cc(Cl)cc2Cl)C(C)C)c2ccccc12 (stereo not drawn) [2-Amino-4,6-dichloro-N-[2-methyl-1-(3-methylindol-1-ylmethyl)propyl]benzenesulfonamide]
CC[C@@H](Cn1ccc2ccccc21)NS(=O)(=O)c1c(N)cc(Cl)cc1Cl [2-Amino-4,6-dichloro-N—((S)-1-indol-1-ylmethylpropyl)benzenesulfonamide]
CC(C)[C@@H](Cn1cc(C#N)c2ccccc21)NS(=O)(=O)c1c(N)cc(Cl)cc1Cl [2-Amino-4,6-dichloro-N—[(S)-1-(3-cyanoindol-1-ylmethyl)-2-methylpropyl]benzenesulfonamide]
CC[C@@H](Cn1cc(C#N)c2ccccc21)NS(=O)(=O)c1c(N)cc(Cl)cc1Cl [2-Amino-4,6-dichloro-N—[(S)-1-(3-cyanoindol-1-ylmethyl)propyl]benzenesulfonamide]
CC[C@@H](Cn1cc(C)c2ccccc21)NS(=O)(=O)c1c(N)cc(Cl)cc1Cl [2-Amino-4,6-dichloro-N—[(S)-1-(3-methylindol-1-ylmethyl)propyl]benzenesulfonamide]
CC[C@@H](Cn1cc(-c2ccccc2)c2ccccc21)NS(=O)(=O)c1c(N)cc(Cl)cc1Cl [2-Amino-4,6-dichloro-N—[(S)-1-(3-phenylindol-1-ylmethyl)propyl]benzenesulfonamide]
Cc1cn(C[C@@H](NS(=O)(=O)c2c(N)cc(Cl)cc2Cl)C(C)C)c2ccccc12 [2-Amino-4,6-dichloro-N—[(S)-2-methyl-1-(3-methylindol-1-ylmethyl)propyl]benzenesulfonamide]
CC[C@@H](Cn1cc(C)c2ccccc21)NS(=O)(=O)c1c(C)cc(C)cc1N [2-Amino-4,6-dimethyl-N—[(S)-1-(3-methylindol-1-ylmethyl)propyl]benzenesulfonamide]
Cc1cc(C)c(S(=O)(=O)N[C@H](Cn2cc(C)c3ccccc32)C(C)C)c(N)c1 [2-Amino-4,6-dimethyl-N—[(S)-2-methyl-1-(3-methylindol-1-ylmethyl)propyl]benzenesulfonamide]
CC[C@@H](Cn1cc(C#N)c2cc(F)ccc21)NS(=O)(=O)c1c(C)cc(C)cc1N [2-Amino-N—[(S)-1-(3-cyano-5-fluoroindol-1-ylmethyl)propyl]-4,6-dimethylbenzenesulfonamide]
CC[C@@H](Cn1cc(C#N)c2cccc(F)c21)N(C)S(=O)(=O)c1c(C)cc(C)cc1N [2-Amino-N—[(S)-1-(3-cyano-7-fluoroindol-1-ylmethyl)propyl]-4,6,N-trimethylbenzenesulfonamide]
Cc1cc(C)c(S(=O)(=O)N[C@H](Cn2cc(C#N)c3ccccc32)C(C)C)c(N)c1 [2-Amino-N—[(S)-1-(3-cyanoindol-1-ylmethyl)-2-methylpropyl]-4,6-dimethylbenzenesulfonamide]
CC[C@@H](Cn1cc(CC#N)c2ccccc21)NS(=O)(=O)c1c(C)cc(C)cc1N [2-Amino-N—[(S)-1-(3-cyanomethylindol-1-ylmethyl)propyl]-4,6-dimethylbenzenesulfonamide]
CC[C@@H](Cn1cc(C)c2cccc(F)c21)NS(=O)(=O)c1c(C)cc(C)cc1N [2-Amino-N—[(S)-1-(7-fluoro-3-methylindol-1-ylmethyl)propyl]-4,6-dimethylbenzenesulfonamide]
